Laboratory results reported in patent publication US20260137698A1, “CYCLIN-DEPENDENT KINASE 7 INHIBITORS” (JOINT STOCK COMPANY «BIOCAD», priority 2022, published 2026).
pIC50: −log10 of the molar value. Where two headings read alike, the source gives them in different places.

Experiments:
CDK7/Cyclin H/MNAT1 = CDK7/Cyclin H/MNAT1 (Homo sapiens, UniProt P50613); assay: Inhibition of CDK7/Cyclin H/MNAT1 kinase activity (ADP-Glo); format: biochemical
Method in brief: (§1)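 Kinase preincubated with compound (11 points, 4-fold steps from 50 μM) for 10 minutes at 25° C. in kinase buffer A with DTT, then reacted 40-60 minutes at 25° C. with ATP and CDKtide, Histone H1 or PDKtide substrate. ADP formation read by ADP-Glo luminescence; IC50 from four-parameter fit.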

[1] = test system: MDA-MB-468 (triple negative breast cancer); assay: Antiproliferative assay on MDA-MB-468 cells (AlamarBlue, 96 h); format: cell-based; details: Homo sapiens, mean value from several measurements
CDK2/Cyclin A = CDK2/Cyclin A (Homo sapiens, UniProt P24941); assay: Inhibition of CDK2/Cyclin A kinase activity (ADP-Glo); format: biochemical
Method in brief: as §1

[2] = test system: NCl-H82 (small cell lung cancer); assay: Antiproliferative assay on NCl-H82 cells (AlamarBlue, 120 h); format: cell-based; details: mean value from several measurements
CDK9/Cyclin K = CDK9/Cyclin K (Homo sapiens, UniProt P50750); assay: Inhibition of CDK9/Cyclin K kinase activity (ADP-Glo); format: biochemical
Method in brief: as §1

[3] = mean of multiple measurement series, ATP 10 μM, read-out: CDK7/Cyclin H/MNAT1 IC50
[4] = mean value from several measurements, read-out: IC50 CDK7/Cyclin H/MNAT
[5] = mean of multiple measurement series, ATP 50 μM, read-out: CDK2/Cyclin A IC50
[6] = mean value from several measurements, read-out: IC50 CDK2/Cyclin A
[7] = mean of multiple measurement series, ATP 50 μM, read-out: CDK9/Cyclin K IC50
[8] = mean value from several measurements, read-out: IC50 CDK9/Cyclin K

CDK9/Cyclin K, sequence (P50750 whole entry): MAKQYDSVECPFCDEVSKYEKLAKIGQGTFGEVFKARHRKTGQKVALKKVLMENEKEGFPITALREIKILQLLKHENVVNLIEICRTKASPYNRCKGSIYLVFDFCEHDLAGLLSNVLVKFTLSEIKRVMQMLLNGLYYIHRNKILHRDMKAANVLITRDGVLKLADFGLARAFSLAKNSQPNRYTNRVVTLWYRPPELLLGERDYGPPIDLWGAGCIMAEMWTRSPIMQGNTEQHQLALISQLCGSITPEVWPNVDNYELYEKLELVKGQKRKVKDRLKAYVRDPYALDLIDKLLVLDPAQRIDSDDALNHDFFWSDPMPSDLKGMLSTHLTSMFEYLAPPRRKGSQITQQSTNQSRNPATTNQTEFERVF
CDK9/Cyclin K, sequence (O75909 whole entry partner): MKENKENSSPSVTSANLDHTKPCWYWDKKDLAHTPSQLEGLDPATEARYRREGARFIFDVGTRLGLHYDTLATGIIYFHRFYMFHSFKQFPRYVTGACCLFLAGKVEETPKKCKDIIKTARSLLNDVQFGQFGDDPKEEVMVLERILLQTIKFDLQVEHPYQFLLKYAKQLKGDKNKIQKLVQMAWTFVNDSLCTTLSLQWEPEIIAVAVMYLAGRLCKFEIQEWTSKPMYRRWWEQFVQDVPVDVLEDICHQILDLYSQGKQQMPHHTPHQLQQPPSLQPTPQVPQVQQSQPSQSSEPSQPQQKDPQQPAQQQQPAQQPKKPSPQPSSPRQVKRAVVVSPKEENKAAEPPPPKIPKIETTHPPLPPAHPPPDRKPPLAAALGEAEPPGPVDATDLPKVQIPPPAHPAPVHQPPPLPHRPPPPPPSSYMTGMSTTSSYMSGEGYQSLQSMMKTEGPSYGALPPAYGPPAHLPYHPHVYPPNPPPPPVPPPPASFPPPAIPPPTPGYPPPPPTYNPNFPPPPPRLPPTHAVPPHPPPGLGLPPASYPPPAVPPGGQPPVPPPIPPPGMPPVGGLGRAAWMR
CDK7/Cyclin H/MNAT1, sequence (P50613 whole entry): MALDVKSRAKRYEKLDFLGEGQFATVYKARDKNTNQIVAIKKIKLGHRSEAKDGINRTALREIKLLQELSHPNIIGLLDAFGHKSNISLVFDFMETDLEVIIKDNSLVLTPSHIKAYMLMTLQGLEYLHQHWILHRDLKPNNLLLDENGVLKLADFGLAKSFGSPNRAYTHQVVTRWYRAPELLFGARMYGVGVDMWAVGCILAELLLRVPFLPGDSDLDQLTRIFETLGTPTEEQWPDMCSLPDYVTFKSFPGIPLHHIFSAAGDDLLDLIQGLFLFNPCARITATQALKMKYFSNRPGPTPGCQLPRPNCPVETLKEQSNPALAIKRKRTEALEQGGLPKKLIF
CDK7/Cyclin H/MNAT1, sequence (P51946 whole entry partner): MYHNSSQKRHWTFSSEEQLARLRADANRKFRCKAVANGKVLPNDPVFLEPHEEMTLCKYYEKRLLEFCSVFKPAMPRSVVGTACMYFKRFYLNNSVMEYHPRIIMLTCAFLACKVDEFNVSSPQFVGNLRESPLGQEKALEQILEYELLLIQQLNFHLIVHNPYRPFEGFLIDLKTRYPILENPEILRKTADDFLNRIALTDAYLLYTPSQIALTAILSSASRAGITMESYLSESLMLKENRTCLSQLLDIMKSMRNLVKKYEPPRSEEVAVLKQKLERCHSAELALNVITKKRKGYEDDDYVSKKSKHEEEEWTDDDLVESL
CDK7/Cyclin H/MNAT1, sequence (P51948 whole entry partner): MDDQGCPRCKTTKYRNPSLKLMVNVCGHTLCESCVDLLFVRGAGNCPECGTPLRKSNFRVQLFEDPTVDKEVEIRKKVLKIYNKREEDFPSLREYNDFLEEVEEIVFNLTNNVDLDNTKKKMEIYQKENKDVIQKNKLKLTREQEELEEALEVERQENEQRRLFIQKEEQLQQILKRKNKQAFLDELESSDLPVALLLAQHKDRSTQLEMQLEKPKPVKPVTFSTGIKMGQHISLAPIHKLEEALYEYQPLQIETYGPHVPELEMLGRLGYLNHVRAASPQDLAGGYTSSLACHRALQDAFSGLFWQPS

`CN1CCCc2c(-c3nc(N[C@H]4CCCNC4)ncc3C(F)(F)F)c[nH]c2C1=O` [CDK7_953, 7-methyl-3-(2-{[(3S)-piperidin-3-yl]amino}-5-(trifluoromethyl)py-rimidin-4-yl)-1H,4H,5H,6H,7H, 8H-pyrrolo[2,3-c]azepin-8-one] was tested, and the pIC50 (CDK7/Cyclin H/MNAT1; [3]) was over 8.30, the pIC50 (CDK7/Cyclin H/MNAT1; [4]) was over 8.30 and the pIC50 [1] was over 8.00. It also gave a pIC50 (CDK2/Cyclin A; [5]) of 5.23, a pIC50 (CDK2/Cyclin A; [6]) of under 6.70 and a pIC50 [2] of over 8.00. It also gave a pIC50 (CDK9/Cyclin K; [7]) of 7.22 and a pIC50 (CDK9/Cyclin K; [8]) of 6.70 to 7.30.

`Cn1cc(N2CCCc3c(-c4nc(N[C@H]5CCCNC5)ncc4C(F)(F)F)c[nH]c3C2=O)cn1` [CDK7_955, 7-(1-methyl-1H-pyrazol-4-yl)-3-(2-{[(3S)-piperidin-3-yl]amino}-5-(trifluoromethyl)py-rimidin-4-yl)-1H,4H,5H,6H,7H, 8H-pyrrolo[2,3-c]azepin-8-one] was tested, and the pIC50 (CDK7/Cyclin H/MNAT1; [4]) was 7.30 to 8.30, the pIC50 [1] was 6.00 to 7.00 and the pIC50 (CDK2/Cyclin A; [6]) was under 6.70. For the same compound, the pIC50 [2] was under 6.00 and the pIC50 (CDK9/Cyclin K; [8]) was under 6.70.

`Cn1cc(-n2ccc3c(-c4nc(N[C@H]5CCCNC5)ncc4C(F)(F)F)c[nH]c3c2=O)cn1` [CDK7_959, 6-(1-methyl-1H-pyrazol-4-yl)-3-(2-{[(3S)-piperidin-3-yl]amino}-5-(trifluoromethyl)py-rimidin-4-yl)-1H,6H,7H-pyrrolo[2,3-c]pyridin-7-one] showed a pIC50 (CDK7/Cyclin H/MNAT1; [3]) of over 8.30, a pIC50 (CDK7/Cyclin H/MNAT1; [4]) of over 8.30 and a pIC50 [1] of over 8.00. It also gave a pIC50 (CDK2/Cyclin A; [5]) of 5.28, a pIC50 (CDK2/Cyclin A; [6]) of under 6.70 and a pIC50 [2] of over 8.00. For the same compound, the pIC50 (CDK9/Cyclin K; [7]) was 6.97 and the pIC50 (CDK9/Cyclin K; [8]) was 6.70 to 7.30.

`O=c1c2[nH]cc(-c3nc(N[C@H]4CCCNC4)ncc3C(F)(F)F)c2ccn1Cc1ccccc1` [CDK7_961, 6-benzyl-3-(2-{[(3S)-piperidin-3-yl]amino}-5-(trifluoromethyl)py-rimidin-4-yl)-1H,6H,7H-pyrrolo[2,3-c]pyridin-7-one] was tested, and the pIC50 (CDK7/Cyclin H/MNAT1; [3]) was over 8.30, the pIC50 (CDK7/Cyclin H/MNAT1; [4]) was over 8.30 and the pIC50 [1] was over 8.00. It also gave a pIC50 (CDK2/Cyclin A; [5]) of 5.43, a pIC50 (CDK2/Cyclin A; [6]) of under 6.70 and a pIC50 [2] of over 8.00. The pIC50 (CDK9/Cyclin K; [7]) was 7.16 and the pIC50 (CDK9/Cyclin K; [8]) was 6.70 to 7.30.

`Cn1cc(N2CCCc3c(-c4nc(N[C@H]5CCC(C)(C)NC5)ncc4C(F)(F)F)c[nH]c3C2=O)cn1` [CDK7_1122, 3-(2-{[(3S)-6,6-dimethylpiperidin-3-yl]amino}-5-(trifluoromethyl)py-rimidin-4-yl)-7-(1-methyl-1H-pyrazol-4-yl)-1H,4H,5H,6H,7H, 8H-pyrrolo[2,3-c]azepin-8-one] showed a pIC50 (CDK7/Cyclin H/MNAT1; [4]) of 7.30 to 8.30, a pIC50 [1] of 6.00 to 7.00 and a pIC50 (CDK9/Cyclin K; [8]) of under 6.70.

For `Cn1cc(-n2ccc3c(-c4nc(N[C@H]5CCC(C)(C)NC5)ncc4C(F)(F)F)c[nH]c3c2=O)cn1` [CDK7_1123, 3-(2-{[(3S)-6,6-dimethylpiperidin-3-yl]amino}-5-(trifluoromethyl)py-rimidin-4-yl)-6-(1-methyl-1H-pyrazol-4-yl)-1H,6H,7H-pyrrolo[2,3-c]pyridin-7-one], the pIC50 (CDK7/Cyclin H/MNAT1; [3]) was over 8.30, the pIC50 (CDK7/Cyclin H/MNAT1; [4]) was over 8.30 and the pIC50 [1] was over 8.00. The pIC50 (CDK2/Cyclin A; [5]) was 4.45, the pIC50 (CDK2/Cyclin A; [6]) was under 6.70 and the pIC50 [2] was 7.00 to 8.00. The pIC50 (CDK9/Cyclin K; [7]) was 6.58 and the pIC50 (CDK9/Cyclin K; [8]) was under 6.70.

With `O=C1c2[nH]cc(-c3nc(NC4CCCNC4)ncc3C(F)(F)F)c2CCCN1c1nccs1` (centres unmarked) [CDK7_1172] the pIC50 (CDK7/Cyclin H/MNAT1; [4]) was over 8.30, the pIC50 [1] was 7.00 to 8.00 and the pIC50 (CDK2/Cyclin A; [6]) was under 6.70. It also gave a pIC50 [2] of 7.00 to 8.00 and a pIC50 (CDK9/Cyclin K; [8]) of under 6.70.

In the case of `O=C1c2[nH]cc(-c3nc(N[C@H]4CCCNC4)ncc3C(F)(F)F)c2CCCN1c1ccccn1` [CDK7_1176, 3-(2-{[(3S)-piperidin-3-yl]amino}-5-(trifluoromethyl)py-rimidin-4-yl)-7-(pyridin-2-yl)-1H,4H,5H,6H,7H, 8H-pyrrolo[2,3-c]azepin-8-one], the pIC50 (CDK7/Cyclin H/MNAT1; [4]) was 7.30 to 8.30 and the pIC50 [1] was 6.00 to 7.00.

Compound `CN1CCCc2c(-c3nc(N[C@H]4CCC(C)(C)NC4)ncc3C(F)(F)F)c[nH]c2C1=O` [CDK7_1187, 3-(2-{[(3S)-6,6-dimethylpiperidin-3-yl]amino}-5-(trifluoromethyl)py-rimidin-4-yl)-7-methyl-1H,4H,5H,6H,7H, 8H-pyrrolo[2,3-c]azepin-8-one] has a pIC50 (CDK7/Cyclin H/MNAT1; [3]) of over 8.30, a pIC50 (CDK7/Cyclin H/MNAT1; [4]) of over 8.30 and a pIC50 [1] of over 8.00. It also gave a pIC50 (CDK2/Cyclin A; [5]) of 4.81, a pIC50 (CDK2/Cyclin A; [6]) of under 6.70 and a pIC50 [2] of over 8.00. It also gave a pIC50 (CDK9/Cyclin K; [7]) of 6.74 and a pIC50 (CDK9/Cyclin K; [8]) of under 6.70.

`O=C1c2[nH]cc(-c3nc(NC4CCCNC4)ncc3C(F)(F)F)c2CCCN1C1CC1` (centres unmarked) [CDK7_1188] was tested, and the pIC50 (CDK7/Cyclin H/MNAT1; [4]) was over 8.30, the pIC50 [1] was over 8.00 and the pIC50 (CDK2/Cyclin A; [6]) was under 6.70. The pIC50 [2] was over 8.00 and the pIC50 (CDK9/Cyclin K; [8]) was under 6.70.

Compound `CC1(C)CC[C@H](Nc2ncc(C(F)(F)F)c(-c3c[nH]c4c3CCCN(C3CC3)C4=O)n2)CN1` [CDK7_1225, 7-cyclopropyl-3-(2-{[(3S)-6,6-dimethylpiperidin-3-yl]amino}-5-(trifluoromethyl)py-rimidin-4-yl)-1H,4H,5H,6H,7H, 8H-pyrrolo[2,3-c]azepin-8-one] has a pIC50 (CDK7/Cyclin H/MNAT1; [3]) of over 8.30, a pIC50 (CDK7/Cyclin H/MNAT1; [4]) of over 8.30 and a pIC50 [1] of 7.00 to 8.00. For the same compound, the pIC50 (CDK2/Cyclin A; [5]) was 4.86, the pIC50 (CDK2/Cyclin A; [6]) was under 6.70 and the pIC50 [2] was 7.00 to 8.00. For the same compound, the pIC50 (CDK9/Cyclin K; [7]) was 6.36 and the pIC50 (CDK9/Cyclin K; [8]) was under 6.70.

With `CC1(C)CC[C@H](Nc2ncc(C(F)(F)F)c(-c3c[nH]c4c3CCCN(CC3CC3)C4=O)n2)CN1` [CDK7_1227, 7-(cyclopropylmeth-yl)-3-(2-{[(3S)-6,6-dimethylpiperidin-3-yl]amino}-5-(trifluoromethyl)py-rimidin-4-yl)-1H,4H,5H,6H,7H, 8H-pyrrolo[2,3-c]azepin-8-one] the pIC50 (CDK7/Cyclin H/MNAT1; [4]) was over 8.30, the pIC50 [1] was 7.00 to 8.00 and the pIC50 (CDK2/Cyclin A; [6]) was under 6.70. The pIC50 [2] was 7.00 to 8.00 and the pIC50 (CDK9/Cyclin K; [8]) was under 6.70.

For `CC(C)N1CCCc2c(-c3nc(N[C@H]4CCC(C)(C)NC4)ncc3C(F)(F)F)c[nH]c2C1=O` [CDK7_1229, 3-(2-{[(3S)-6,6-dimethylpiperidin-3-yl]amino}-5-(trifluoromethyl)py-rimidin-4-yl)-7-(propan-2-yl)-1H,4H,5H,6H,7H, 8H-pyrrolo[2,3-c]azepin-8-one], the pIC50 (CDK7/Cyclin H/MNAT1; [3]) was over 8.30, the pIC50 (CDK7/Cyclin H/MNAT1; [4]) was over 8.30 and the pIC50 [1] was 7.00 to 8.00. It also gave a pIC50 (CDK2/Cyclin A; [5]) of 4.64, a pIC50 (CDK2/Cyclin A; [6]) of under 6.70 and a pIC50 [2] of 7.00 to 8.00. The pIC50 (CDK9/Cyclin K; [7]) was 6.31 and the pIC50 (CDK9/Cyclin K; [8]) was under 6.70.

`CC1CCc2c(-c3nc(N[C@H]4CCCNC4)ncc3C(F)(F)F)c[nH]c2C(=O)N1C` (stereo partly drawn) [CDK7_1254, 6,7-dimethyl-3-(2-{[(3S)-piperidin-3-yl]amino}-5-(trifluoromethyl)py-rimidin-4-yl)-1H,4H,5H,6H,7H, 8H-pyrrolo[2,3-c]azepin-8-one] gave a pIC50 (CDK7/Cyclin H/MNAT1; [4]) of over 8.30, a pIC50 [1] of 7.00 to 8.00 and a pIC50 (CDK2/Cyclin A; [6]) of under 6.70. The pIC50 [2] was 7.00 to 8.00 and the pIC50 (CDK9/Cyclin K; [8]) was under 6.70.

`CCN1CCCc2c(-c3nc(N[C@H]4CCC(C)(C)NC4)ncc3C(F)(F)F)c[nH]c2C1=O` [CDK7_1259, 3-(2-{[(3S)-6,6-dimethylpiperidin-3-yl]amino}-5-(trifluoromethyl)py-rimidin-4-yl)-7-ethyl-1H,4H,5H,6H,7H, 8H-pyrrolo[2,3-c]azepin-8-one] was tested, and the pIC50 (CDK7/Cyclin H/MNAT1; [4]) was over 8.30, the pIC50 [1] was 7.00 to 8.00 and the pIC50 (CDK2/Cyclin A; [6]) was under 6.70. It also gave a pIC50 [2] of 7.00 to 8.00 and a pIC50 (CDK9/Cyclin K; [8]) of under 6.70.

Compound `O=C1c2[nH]cc(-c3nc(N[C@H]4CCC5(CC5)NC4)ncc3C(F)(F)F)c2CCCN1C1CC1` [CDK7_1276, 3-(2-{[(6S)-4-azaspiro[2.5]octan-6-yl]amino}-5-(trifluoromethyl)py-rimidin-4-yl)-7-cyclopropyl-1H,4H,5H,6H,7H, 8H-pyrrolo[2,3-c]azepin-8-one] has a pIC50 (CDK7/Cyclin H/MNAT1; [3]) of over 8.30, a pIC50 (CDK7/Cyclin H/MNAT1; [4]) of over 8.30 and a pIC50 [1] of over 8.00. It also gave a pIC50 (CDK2/Cyclin A; [5]) of 5.21, a pIC50 (CDK2/Cyclin A; [6]) of under 6.70 and a pIC50 [2] of over 8.00. For the same compound, the pIC50 (CDK9/Cyclin K; [7]) was 6.53 and the pIC50 (CDK9/Cyclin K; [8]) was under 6.70.

For `CC(C)N1CCCc2c(-c3nc(N[C@H]4CCC5(CC5)NC4)ncc3C(F)(F)F)c[nH]c2C1=O` [CDK7_1277, 3-(2-{[(6S)-4-azaspiro[2.5]octan-6-yl]amino}-5-(trifluoromethyl)py-rimidin-4-yl)-7-(propan-2-yl)-1H,4H,5H,6H,7H, 8H-pyrrolo[2,3-c]azepin-8-one], the pIC50 (CDK7/Cyclin H/MNAT1; [3]) was over 8.30, the pIC50 (CDK7/Cyclin H/MNAT1; [4]) was over 8.30 and the pIC50 [1] was over 8.00. The pIC50 (CDK2/Cyclin A; [5]) was 4.84, the pIC50 (CDK2/Cyclin A; [6]) was under 6.70 and the pIC50 [2] was over 8.00. For the same compound, the pIC50 (CDK9/Cyclin K; [7]) was 6.35 and the pIC50 (CDK9/Cyclin K; [8]) was under 6.70.
